Series [1] is described as follows: Retention time of the compound by HPLC method. The format is physicochemical.
Series [2] in a line: Stability in rat liver S9 fraction at 100 uM after 24 hrs in presence of 1 mM reduced glutathione at 37 degC by HPLC method. The note with it: s9, 24 h. The format is ADME, subcellular.
Series [3] can be described thus: Stability in pH 7.4 buffer solution. The format is physicochemical.
Series [4] can be described thus: Stability in pH 1.0 HCl buffer solution measured over 3 weeks by HPLC method. The note with it: pH 1, 504 h. In kind it is physicochemical.
The test system of the next series is Liver microsome. Briefly: Prodrug conversion in rat liver microsomes assessed as half life for metformin formation at 100 uM in presence of a NADPH-regenerating system by HPLC method. The format is ADME.
A short description of series [5]: Stability in presence of 1 mM reduced glutathione at 100 uM after 24 hrs at 37 degC by HPLC method. The format is physicochemical.
Series [6] in a line: Prodrug conversion in human liver S9 fraction assessed as half life for metformin formation at 100 uM in presence of 1 mM reduced glutathione by HPLC method. The format is ADME, subcellular. The note with it: gsh.
In series [7] the target is T1, Glutathione S-transferase Mu 2 (Homo sapiens, UniProt P28161).
T1 sequence (P28161 whole entry): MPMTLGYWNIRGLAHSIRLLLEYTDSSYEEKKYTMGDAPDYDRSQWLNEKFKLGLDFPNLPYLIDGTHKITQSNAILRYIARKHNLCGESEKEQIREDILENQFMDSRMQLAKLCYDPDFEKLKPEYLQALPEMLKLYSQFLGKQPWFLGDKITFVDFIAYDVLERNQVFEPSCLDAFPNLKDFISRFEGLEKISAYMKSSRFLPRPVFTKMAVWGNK
Kind of series: Prodrug conversion assessed as half life for human recombinant GST-M2-mediated metformin formation at 100 uM in presence of 1 mM reduced glutathione by HPLC method. In kind it is ADME. The note with it: gsh.

The nature of series [8]: Aqueous solubility in pure water incubated for 1 hr by HPLC based shake flask method. In kind it is physicochemical.
A further series deals with Intestine. Kind of series: Stability in rat small intestine homogenates by HPLC method. In kind it is ADME, tissue-based. The note with it: tissue homogenate.
Series [9] can be described thus: Prodrug conversion in rat liver S9 fraction assessed as half life for metformin formation at 100 uM in presence of 1 mM reduced glutathione by HPLC method. In kind it is ADME, subcellular. The conditions noted are these: gsh.
For the next series, the system named is Liver cytosol. Kind of series: Prodrug conversion in rat liver cytosol assessed as half life for metformin formation at 100 uM in presence of a NADPH-regenerating system by HPLC method. In kind it is ADME, tissue-based.
Series [10] is described as follows: Prodrug conversion in rat liver S9 fraction assessed as […] GST-mediated metformin formation at 10 to 200 uM in presence of 1 mM reduced glutathione by Michaelis-Menten method. The format is ADME, subcellular. The note with it: s9, 200 µM.
Series [11] deals with Glutathione S-transferase P (Homo sapiens, UniProt P09211). Briefly: Prodrug conversion assessed as half life for human recombinant GST-P1-mediated metformin formation at 100 uM in presence of 1 mM reduced glutathione by HPLC method. In kind it is ADME. The note with it: gsh.
Sequence of Glutathione S-transferase P (P09211 whole entry): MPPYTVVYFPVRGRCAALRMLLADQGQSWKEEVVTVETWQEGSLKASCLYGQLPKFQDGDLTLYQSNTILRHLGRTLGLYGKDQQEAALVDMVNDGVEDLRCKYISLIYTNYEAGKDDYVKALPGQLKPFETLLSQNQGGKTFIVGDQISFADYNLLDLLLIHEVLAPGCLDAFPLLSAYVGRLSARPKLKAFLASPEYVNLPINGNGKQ
Series [12] in a line: Distribution coefficient, logD of the compound in mixture of 1-octanol and 50 mM phosphate buffer pH 7.4 by HPLC method. In kind it is physicochemical. The conditions noted are these: 1-octanol/50 mM phosphate buffer.
The target in series [13] is T2, Glutathione S-transferase A1 (Homo sapiens, UniProt P08263).
T2 sequence (P08263 whole entry): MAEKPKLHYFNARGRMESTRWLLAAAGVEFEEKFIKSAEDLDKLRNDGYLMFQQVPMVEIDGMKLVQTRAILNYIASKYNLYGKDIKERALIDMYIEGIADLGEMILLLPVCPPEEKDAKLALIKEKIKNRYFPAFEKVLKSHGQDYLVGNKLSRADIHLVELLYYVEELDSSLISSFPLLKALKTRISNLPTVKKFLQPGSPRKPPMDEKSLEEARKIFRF
Kind of series: Prodrug conversion assessed as half life for human recombinant GST-A1-mediated metformin formation at 100 uM in presence of 1 mM reduced glutathione by HPLC method. The conditions noted are these: gsh. In kind it is ADME.

Series [14] can be described thus: Stability in rat liver S9 fraction at 100 uM after 24 hrs in absence of 1 mM reduced glutathione at 37 degC by HPLC method. The conditions noted are these: s9, 24 h. The format is ADME.

Values after ≈ are worked out from the molar mass of the structure shown.

`CN(C)C(=N)/N=C(\N)NS(=O)(=O)c1ccc([N+](=O)[O-])cc1` gave a Retention_time in [1] of 3 min. The Stability result in series [2] and in series [3] was “Stable” each time.

With `CN(C)C(=N)N=C(N)N` [METFORMIN], in series [1], the Retention_time is 15 min.

One may read the thermodynamic solubility as the concentration in solution at equilibrium with solid. One may read the Km as the concentration of substrate that gives half-maximal velocity. A word on the Vmax: it is the rate approached at saturating substrate. What is called logD is the decadic logarithm of the distribution of all forms, ionised or not, between an organic phase and buffer at a given pH. As for `CN(C)C(=N)/N=C(\N)NS(=O)(=O)c1ccc(C(F)(F)F)cc1[N+](=O)[O-]`, the Stability result (in series [4]; in [5]; in the series on Intestine; in [3]; in series [14]) was “Stable” in each case. The t1/2 with Liver microsome came to 9.4752 h; in series [6] it was 6.0382 h; in [7], 6.1045 h; in series [9] it was 3.7668 h; in the series with Liver cytosol it was 4.6642 h; in series [11], 6.8675 h. The t1/2 in series [13] came out at 6.337 h. In addition, in series [8], the thermodynamic solubility at 1 h was 0.36 mg/mL (≈ 942 µM). In addition, the Retention_time in series [1] turned out to be 3 min. Moreover, in [10], the Km was determined as 106 µM. In addition, the Vmax in [10] is on record as 8.86 nmol/mg/min. The logD in series [12] is 0.86.

For `CN(C)C(=N)/N=C(\N)NS(=O)(=O)c1ccccc1[N+](=O)[O-]`, the Retention_time in [1] worked out at 3 min. The Stability result in series [2] and in series [3] was “Stable” each time.

As to `CCC[C@@]1(CCc2ccccc2)CC(O)=C([C@H](CC)c2cccc(NS(=O)(=O)c3ccc(C#N)cn3)c2)C(=O)O1`, in series [10], the Km was determined as 143 µM and the Vmax is recorded as 13.9 nmol/mg/min.
